Measurements published in PubChem BioAssay AID330 (DTP/NCI, 2004).
Several values for one entry are separate records, joined by “and”; a condition that tells them apart may be missing. Equal entries are not always repeated. Toxic doses and inconclusive results are not listed. The calls were made as follows: active = survival T/C of 150% or more; inactive = T/C below 125% in these data. Bridge positions count the residues as written; N and C are the ends. Square brackets hold non-standard residues; d marks the D form. Peptide text beside a SMILES is read from it. * marks the point of attachment. Cya = N[CH](CS(=O)(=O)O)C(=O)O; X6 = CC(C)CCCCCCCC(O)CC(=O)*; GABA = NCCCC(=O)O

System: P388 leukemia ip, CD2F1 mice, survival T/C
Test: NCI In Vivo Anticancer Drug Screen. Data for tumor model P388 Leukemia (intraperitoneal) in CD2F1 (CDF1) mice
Conditions: endpoint: median survival time, higher = longer survival
Summary of the method: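 Mice carrying the transplanted tumor received test compound or vehicle. Survival was recorded in each group, and the value is the treated-group measurement divided by that of the vehicle-treated control group.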

[1] = dose: 100.0 mg/kg/injection, schedule: Q01DX009 (ip), vehicle: saline with Tween-80
[2] = dose: 200.0 mg/kg/injection, schedule: Q01DX009 (ip), vehicle: saline with Tween-80
[3] = dose: 60.0 mg/kg/injection, schedule: Q01DX005 (ip), vehicle: Klucel (hydroxypropylcellulose) (HPC)
[4] = dose: 120.0 mg/kg/injection, schedule: Q01DX005 (ip), vehicle: Klucel (hydroxypropylcellulose) (HPC)
[5] = dose: 240.0 mg/kg/injection, schedule: Q01DX005 (ip), vehicle: Klucel (hydroxypropylcellulose) (HPC)
[6] = dose: 100.0 mg/kg/injection, schedule: Q04DX003 (ip), vehicle: Klucel (hydroxypropylcellulose) (HPC)
[7] = dose: 200.0 mg/kg/injection, schedule: Q04DX003 (ip), vehicle: Klucel (hydroxypropylcellulose) (HPC)
[8] = dose: 400.0 mg/kg/injection, schedule: Q04DX003 (ip), vehicle: Klucel (hydroxypropylcellulose) (HPC)
[9] = dose: 50.0 mg/kg/injection, schedule: Q01DX009 (ip), vehicle: saline
[10] = dose: 12.5 mg/kg/injection, schedule: Q01DX005 (ip), vehicle: saline with Tween-80
[11] = dose: 25.0 mg/kg/injection, schedule: Q01DX005 (ip), vehicle: saline with Tween-80
[12] = dose: 50.0 mg/kg/injection, schedule: Q01DX005 (ip), vehicle: saline with Tween-80
[13] = dose: 100.0 mg/kg/injection, schedule: Q01DX005 (ip), vehicle: saline with Tween-80
[14] = dose: 200.0 mg/kg/injection, schedule: Q01DX005 (ip), vehicle: saline with Tween-80
[15] = dose: 100.0 mg/kg/injection, schedule: Q01DX009 (ip), vehicle: saline
[16] = dose: 200.0 mg/kg/injection, schedule: Q01DX009 (ip), vehicle: saline

Measured: T/C

N#CC(C(=O)N1CCCC1)=C(S)S
inactive: [1] 100 % of control | [2] 100 % of control | dose: 400.0 mg/kg/injection, schedule: Q01DX009 (ip), vehicle: saline with Tween-80 100 % of control

NS(=O)(=O)c1ccc(Cl)c(Cl)c1
inactive: dose: 100.0 mg/kg/injection, schedule: Q04DX003 (ip), vehicle: saline with Tween-80 90 % of control | dose: 200.0 mg/kg/injection, schedule: Q04DX003 (ip), vehicle: saline with Tween-80 90 % of control | dose: 400.0 mg/kg/injection, schedule: Q04DX003 (ip), vehicle: saline with Tween-80 90 % of control

O=[N+]([O-])c1ccc(-c2ncc(-c3ccc(Br)cc3)o2)cc1
inactive: [3] 108 % of control | [4] 107 % of control | [5] 110 % of control

CC(C)CCCCCCCC(O)CC(=O)NC(CS(=O)(=O)O)C(=O)NC(CC(C)C)C(=O)NCCCC(=O)NC(Cc1cnc[nH]1)C(=O)NC(C)C(=O)NC1C(=O)NC(C(C)O)C(=O)NC(Cc2cnc[nH]2)C(=O)NC(C)C(=O)NC(C(C)O)C(=O)OC1C (centres undefined) (X6-[Cya]L[GABA]HATTHAT; ester 6-C; configuration not given here)
inactive: dose: 0.38 mg/kg/injection, schedule: Q01DX005 (ip), vehicle: other 95 % of control | dose: 0.75 mg/kg/injection, schedule: Q01DX005 (ip), vehicle: other 102 % of control | dose: 1.5 mg/kg/injection, schedule: Q01DX005 (ip), vehicle: other 100 % of control | dose: 3.0 mg/kg/injection, schedule: Q01DX005 (ip), vehicle: other 100 % of control | dose: 6.0 mg/kg/injection, schedule: Q01DX005 (ip), vehicle: other 99 % of control

O=C(O)C(/N=N\c1nn[nH]n1)/N=N\c1ncn[nH]1 (centres undefined)
inactive: [6] 102 % of control | [7] 108 % of control | [8] 101 % of control

CCC1CN2C(=N1)c1ccccc1-c1cc(Cl)ccc12 (centres undefined)
active: dose: 40.0 mg/kg/injection, schedule: Q01DX009 (ip), vehicle: saline 156 % of control
inactive: dose: 5.0 mg/kg/injection, schedule: Q01DX009 (ip), vehicle: saline 106 % of control | dose: 6.25 mg/kg/injection, schedule: Q01DX009 (ip), vehicle: saline 101 % of control and 102 % of control and 90 % of control | dose: 10.0 mg/kg/injection, schedule: Q01DX009 (ip), vehicle: saline 121 % of control and 124 % of control | dose: 12.5 mg/kg/injection, schedule: Q01DX009 (ip), vehicle: saline 103 % of control and 106 % of control and 97 % of control | dose: 20.0 mg/kg/injection, schedule: Q01DX009 (ip), vehicle: saline 117 % of control | dose: 25.0 mg/kg/injection, schedule: Q01DX009 (ip), vehicle: saline 101 % of control (2×) and 108 % of control | [9] 103 % of control and 123 % of control and 94 % of control

CCOC(=O)c1c(C)c2c(n1Cc1ccccc1)CCCC2=O
inactive: [6] 99 % of control | [7] 97 % of control | [8] 98 % of control

CC1(C)SC(C)(C)N2C(=O)[C@H]3N(C(=O)[C@@H]21)C(C)(C)SC3(C)C
inactive: [10] 100 % of control | [11] 94 % of control | [12] 99 % of control and 91 % of control | [13] 94 % of control | [14] 97 % of control

COc1cc2c(cc1OC)C1C(O)C(OC)C(O)C3=CCN(C2)C31 (centres undefined)
inactive: [9] 100 % of control | [15] 104 % of control | [16] 102 % of control

CN(C)c1ccc(/C=C\c2cccc[n+]2C)cc1
inactive: dose: 0.39 mg/kg/injection, schedule: Q01DX009 (ip), vehicle: saline 99 % of control and 100 % of control | dose: 0.78 mg/kg/injection, schedule: Q01DX009 (ip), vehicle: saline 100 % of control and 106 % of control | dose: 1.56 mg/kg/injection, schedule: Q01DX009 (ip), vehicle: saline 100 % of control and 105 % of control | dose: 3.12 mg/kg/injection, schedule: Q01DX009 (ip), vehicle: saline 109 % of control and 114 % of control

COC(=O)Nc1nc2cc(OC)c(OC)cc2c(=O)[nH]1
inactive: [11] 111 % of control | [12] 107 % of control

CC(=O)OCC1OC(Oc2ncccn2)C(OC(C)=O)C1OC(C)=O (centres undefined)
inactive: [9] 98 % of control | dose: 50.0 mg/kg/injection, schedule: Q01DX009 (ip), vehicle: suspension in saline 100 % of control | [15] 103 % of control | dose: 100.0 mg/kg/injection, schedule: Q01DX009 (ip), vehicle: suspension in saline 99 % of control | [16] 100 % of control | dose: 200.0 mg/kg/injection, schedule: Q01DX009 (ip), vehicle: suspension in saline 99 % of control | dose: 400.0 mg/kg/injection, schedule: Q01DX009 (ip), vehicle: saline 99 % of control | dose: 400.0 mg/kg/injection, schedule: Q01DX009 (ip), vehicle: suspension in saline 96 % of control

COC(=O)C1C(=O)CC2N(C)C1C(C)(C)C2(C)C (centres undefined)
active: dose: 120.0 mg/kg/injection, schedule: Q01DX005 (ip), vehicle: saline with Tween-80 150 % of control

S=c1[nH]c(=S)c2[nH]c(=S)[nH]c2[nH]1
inactive: [10] 92 % of control | [11] 96 % of control | [12] 90 % of control and 95 % of control | [14] 89 % of control

CN1CCC(/C=C/c2ccc(Cl)c(Cl)c2)CN1 (centres undefined) (tested in a mixture with another compound)
inactive: dose: 25.0 mg/kg/injection, schedule: Q01DX001 (ip), vehicle: saline 100 % of control and 95 % of control | dose: 50.0 mg/kg/injection, schedule: Q01DX001 (ip), vehicle: saline 100 % of control | dose: 100.0 mg/kg/injection, schedule: Q01DX001 (ip), vehicle: saline 104 % of control and 93 % of control | dose: 100.0 mg/kg/injection, schedule: Q01DX001 (ip), vehicle: suspension in saline 116 % of control

C=C/C=C/NC(=O)OCc1ccccc1
inactive: dose: 50.0 mg/kg/injection, schedule: Q01DX009 (ip), vehicle: saline with Tween-80 100 % of control | [1] 105 % of control | [2] 102 % of control

CC1(C)C2CC=C(C[P+](c3ccccc3)(c3ccccc3)c3ccccc3)C1C2 (centres undefined)
inactive: dose: 1.25 mg/kg/injection, schedule: Q01DX009 (ip), vehicle: saline with Tween-80 119 % of control | dose: 2.5 mg/kg/injection, schedule: Q01DX009 (ip), vehicle: saline with Tween-80 119 % of control

N#CCC(=O)N/N=C(\CC1(O)C(=O)Nc2c(Cl)cc(Cl)cc21)c1cccc2ccccc12 (centres undefined)
inactive: [10] 90 % of control | [11] 89 % of control | [12] 88 % of control | [13] 88 % of control

O=C(/C=C/c1ccc(Cl)cc1)c1ccccc(=O)c1O
inactive: dose: 50.0 mg/kg/injection, schedule: Q01DX005 (ip), vehicle: Klucel (hydroxypropylcellulose) (HPC) 101 % of control | dose: 100.0 mg/kg/injection, schedule: Q01DX005 (ip), vehicle: Klucel (hydroxypropylcellulose) (HPC) 100 % of control

CCc1cccc(C2(C)C(=O)c3ccccc3C2=O)c1
inactive: dose: 100.0 mg/kg/injection, schedule: Q04DX002 (ip), vehicle: saline 105 % of control | dose: 200.0 mg/kg/injection, schedule: Q04DX002 (ip), vehicle: saline 100 % of control | dose: 400.0 mg/kg/injection, schedule: Q04DX002 (ip), vehicle: saline 102 % of control

COc1ccccc1C1NC(c2ccccc2OC)C2CCCC1C2O (centres undefined)
inactive: dose: 100.0 mg/kg/injection, schedule: Q04DX003 (ip), vehicle: saline 98 % of control | dose: 200.0 mg/kg/injection, schedule: Q04DX003 (ip), vehicle: saline 97 % of control | dose: 400.0 mg/kg/injection, schedule: Q04DX003 (ip), vehicle: saline 95 % of control

CCN(CC)c1cc(=O)n2ccccc2n1
inactive: [3] 96 % of control | [4] 100 % of control | [5] 103 % of control

COc1cc2c(cc1OC)C1Cc3cc(OC)c(OC)cc3[N+]1(C)CC2 (centres undefined)
inactive: [12] 103 % of control | [13] 103 % of control

O=C1NNC(c2ccccc2)=Nc2[nH]ncc21
inactive: dose: 100.0 mg/kg/injection, schedule: Q04DX002 (ip), vehicle: saline with Tween-80 96 % of control | dose: 200.0 mg/kg/injection, schedule: Q04DX002 (ip), vehicle: saline with Tween-80 93 % of control | dose: 400.0 mg/kg/injection, schedule: Q04DX002 (ip), vehicle: saline with Tween-80 93 % of control
